Laboratory results published in PubChem BioAssay AID2305 (GlaxoSmithKline (GSK), 2010).
Values joined by “and” are separate entries in the source; they are usually repeats but may differ in a detail not shown here. Identical values can stand only once.

test system: P. falciparum 3D7 growth, pLDH absorbance; experiment: blood-stage malaria parasite growth potency – strain 3D7, dose response (AID 2305)

SMILES | IC50
COc1cccc(CCN(Cc2ccccc2-c2ccc(CNC3CC(C)(C)NC(C)(C)C3)cc2)C(=O)NC2CCCCC2)c1 | 930 nM
O=C(/C=C/c1ccc(Cl)cc1Cl)NC1CCC(CN2CCC(c3c[nH]c4ccccc34)CC2)CC1 (stereo unspecified) | 800 nM
COc1cc2nc(N3CCC(CNCc4ccc(-c5ccc(C(F)(F)F)cc5)cc4)CC3)nc(N)c2cc1OC | 90 nM
COc1ccc(CNc2ccnc3cc(OC)ccc23)cc1 | 770 nM
CCNS(=O)(=O)c1ccc(Oc2ccc([N+](=O)[O-])cc2)cc1 | 170 nM
Cc1cccc2[nH]c(-c3cccc(-c4cccc(NC(=O)Nc5ccsc5)c4)c3)nc12 | 170 nM
COc1cccc(CNC(=O)NC2CCN(c3ccnc(Nc4ccc(F)cc4)n3)C2)c1 (stereo unspecified) | 810 nM
O=C1CC(C(=O)Nc2cccc(-c3cccc(-c4nc5ccccc5[nH]4)c3)c2)c2ccccc2N1 (stereo unspecified) | 980 nM
COc1ccc2nc(C)cc(NCc3cccc4ccccc34)c2c1 | 220 nM
Cc1ccc(CN2CCC(C(=O)Nc3ccc(-c4cc5ccccc5[nH]4)cc3)CC2)o1 | 1420 nM
COc1ccc(-c2ccc(CNC3Cc4ccccc4C3)cc2)cc1S(=O)(=O)NCCN1CCCC1 | 800 nM
Cc1ccc(CCC(C)NCC(O)c2cccc(Cl)c2)cc1 (stereo unspecified) | 800 nM
CN(C)CCOc1cc(NC(=O)Nc2cccc3c(-c4ccncc4)cccc23)ccc1I | 730 nM
O=C(NC1CCCCN(Cc2ccccc2O)C1)c1cccc(Cl)c1 (stereo unspecified) | 1060 nM
COc1ccc(CNCc2cccc(-c3ccc(-c4nc5ccccc5[nH]4)s3)c2)cc1 | 820 nM
O=C(NC1CCN(Cc2ccccc2)CC1)c1cc(C(=O)NC2CCN(Cc3ccccc3)CC2)cc(C(=O)NC2CCN(Cc3ccccc3)CC2)c1 | 1040 nM
CCCN1CCc2c(sc3nc(SCC(=O)Nc4ccc(C)cc4)n(-c4ccc(C)cc4)c(=O)c23)C1 | 870 nM
COc1ccccc1N1CCN(CCCCNC(=O)c2ccc(NC(=O)c3ccc(OC(F)(F)F)cc3)cc2)CC1 | 660 nM
N#Cc1ccc2c(c1)CCN(CCC1CCC(NC(=O)/C=C/c3c[nH]c4ccc(F)cc34)CC1)CC2 (stereo unspecified) | 690 nM
COc1ccc(C=NNc2ccnc3ccccc23)c2ccccc12 | 700 nM
O=C(Nc1cccc(-c2cccc(-c3nc4ccc(C(F)(F)F)cc4[nH]3)c2)c1)c1cccnc1 | 400 nM
CN(C)CCOc1ccc(N2CCN(CCCCNC(=O)c3ccc(/C=C/c4cc(Cl)cc(Cl)c4)cc3)CC2)cc1 | 1000 nM
COc1ccc(N2CCN(CCCCNC(=O)c3ccc(NC(=O)c4ccc(Cl)cc4)cc3)CC2)c(C)c1 | 760 nM
O=c1[nH]c2c(cc1CNC1CCCCC1)c(-c1ccc(F)cc1)nn2-c1ccccc1 | 800 nM

SMILES | IC50
COc1ccc(CNCc2cccc(-c3ccc(-c4nc5ccccc5[nH]4)cc3)c2)cc1 | 310 nM
CCCCNCc1ccc(-c2nc(CN(CCCN3CCN(C)CC3)C(=O)Nc3cccc(Cl)c3)cs2)cc1 | 970 nM
O=C1NC(C(=O)Nc2ccccc2)C(c2ccccc2)S1 (stereo unspecified) | 170 nM
Cc1nc(-c2ccc(-c3ccc(C(=O)Nc4ccc(I)c(OCC5CCCN5C)c4)cc3)c(C)c2)no1 (stereo unspecified) | 30 nM
CC(=O)Nc1ncc(C(=O)Nc2cccc(-c3ccc(-c4nc5ccccc5[nH]4)cc3)c2)s1 | 670 nM
CC(=O)c1cccc(NC(=O)NC2CCN(c3ccnc(Nc4ccc(F)cc4)n3)C2)c1 (stereo unspecified) | 650 nM
COc1ccc(Nc2ncc3c(-c4cccc(NC(=O)Cc5cccc(F)c5)c4)c[nH]c3n2)cc1OC | 570 nM
CCCN1CCC=C(c2cccc(Nc3nccc(Nc4cc(OC)ccc4C)n3)c2)C1 | 1040 nM
O=C(C=Cc1ccc(Cl)c(Cl)c1)NCCCCCN1CCC(CCCNS(=O)(=O)c2cccc(C(F)(F)F)c2)CC1 | 480 nM
COc1ccc(CCNCc2cc3c(C(C)(C)C)nn(-c4ccc(Cl)cc4)c3[nH]c2=O)cc1OC | 150 nM
CCOC(=O)CNCC(=O)c1ccc(OCc2ccccc2)cc1 | 160 nM
Cc1ccc(C)c(Sc2ccc(NC(=O)CN3CCN(C(=O)c4ccco4)CC3)cc2)c1 | 720 nM
CCN(c1ccccc1)S(=O)(=O)c1ccc(NC(=O)c2cc(-c3cc(C)ccc3O)n[nH]2)cc1 | 770 nM
O=S1(=O)NCc2ccc(Nc3nccc(Nc4ccc5c(cnn5Cc5ccccc5)c4)n3)cc21 | 750 nM
O=C(Nc1ccccc1)OCCOc1ccc(CC2SC(=O)NC2=O)cc1 (stereo unspecified) | 370 nM
O=C(C=Cc1ccc(Cl)c(Cl)c1)NCCCCCN1CCC(CCNS(=O)(=O)c2ccc(Br)cc2)CC1 | 1120 nM
CCN1C(=O)C(CC(=O)Nc2cccc(Cl)c2)N(Cc2ccc(OC)c(OC)c2)C1=S (stereo unspecified) | 610 nM
O=C(N[C@@H](Cc1ccccc1)C(=O)NC1CCCc2ccccc21)c1ccc(O)c(-c2ccc(Cl)c(Cl)c2)c1 (stereo partly specified) | 210 nM
Cc1cc(C(F)(F)F)n2nc(C3CCN(Cc4cc(C)c(O)c(C)c4)C3)cc2n1 (stereo unspecified) | 760 nM
O=c1ccc2ccc(F)c3c2n1CC3CN1CCC(NCc2ccc(-c3cccc(Cl)c3)nc2)CC1 (stereo unspecified) | 990 nM
CC(C)N1CCN(C(CN2CCN(CCCOc3ccc4nonc4c3)CC2)c2ccc(F)cc2)CC1 (stereo unspecified) | 800 nM
O=C(/C=C/c1cccc(F)c1)NC1CCC(CN2CCC(c3c[nH]c4ccccc34)CC2)CC1 (stereo unspecified) | 870 nM and 710 nM
COc1ccc2nccc([C@@H](O)CN3CCC(NCc4nc5ccccc5[nH]4)CC3)c2c1 | 1070 nM
O=S(=O)(NCCN1CCCC1)c1ccc(-c2ccc(CNCc3ccsc3)cc2)cc1 | 850 nM

SMILES | IC50
Cc1ccc(CNC(=O)c2cc3c(=O)n4ccccc4nc3n(CCCN3CCOCC3)c2=N)cc1 | 1090 nM
O=C(Nc1ccc2c(c1)OCO2)c1cc(-c2cccnc2)cnc1NCc1ccc2c(c1)OCO2 | 1190 nM
CN(C)c1ccc(CN2CCC(NC(=O)c3ccc(-c4cccc(F)c4)s3)CC2)cc1 | 1490 nM
Cc1cc(N[C@@H](Cc2ccccc2)C(=O)NCc2cccc(F)c2)nc(NCCc2cccnc2)n1 | 1340 nM
O=C(/C=C/c1ccc(Cl)cc1)NCCCCCN1CCCN(C(=O)Nc2ccc(F)c(Cl)c2)CC1 | 780 nM
Cc1ccc2nc(-c3cc(-c4cccc(C#N)c4)cnc3N)[nH]c2c1 | 120 nM
CCCCOc1cc(OC)c2ccccc2c1CCNCCCCNCCc1c(OCCCC)cc(OC)c2ccccc12 | 1050 nM
Cc1noc(C)c1-c1cccc(CNCc2ccc(-c3ccc(-c4nc5ccc(F)cc5[nH]4)cc3)cc2)c1 | 210 nM
CNCc1ccc2nc(-c3coc(Cc4cc(Cl)ccc4OCC(C)C)n3)[nH]c2c1 | 840 nM
Cc1cc(C(F)(F)F)n2nc(C(=O)N(Cc3cncn3Cc3cccc(F)c3)CC3CC3)cc2n1 | 740 nM
Cc1[nH]c2cc(Cl)ccc2c1C1=CCN(CCCCC2(C)C(=O)Nc3c(F)cccc32)CC1 (stereo unspecified) | 840 nM
Cc1nc(-c2cccc(C(=O)Nc3cnc4ccccc4c3)c2)no1 | 1160 nM
N#Cc1ccccc1C1CCN(C2CCC(Nc3cc(-c4cccnc4)ccn3)CC2)CC1 (stereo unspecified) | 960 nM
CC(C)c1ccc(S(=O)(=O)Nc2cccc(CCN3CCC(N4CCCCC4)CC3)c2)cc1 | 1120 nM
O=C(Nc1nc2cc(S(=O)(=O)NCCCN3CCOCC3)ccc2n1CCCn1ccnc1)c1ccc(Cl)cc1 | 930 nM
CNC(=S)NN=C(C)c1ccccn1 | 270 nM
COc1ccc(CNCc2ccccc2)cc1-c1ccc(S(=O)(=O)NCCN2CCCC2)c(F)c1 | 1140 nM
CN(c1cc(NC(=O)c2ccc(F)cc2)ccn1)C1CCN(Cc2cccc(C#N)c2)CC1 | 830 nM
Oc1ccc(CCNc2nc(NCc3ccc4cc(Cl)ccc4c3)nc(N3CCNCC3)n2)cc1 | 1020 nM
Cc1cc(N[C@@H](Cc2ccccc2)C(=O)Nc2ccccc2)nc(NCC2CCCCC2)n1 | 760 nM
OCCCCCCNc1ccnc2[nH]c3ccc(I)cc3c12 | 1070 nM
CCOc1cc(C(=O)Nc2ccc3nc(N4CCN(C)CC4)cc(C)c3c2)cc(OCC)c1OCC | 850 nM
O=C(/C=C/c1ccc(Cl)cc1)NCCCCCN1CCN(C(=O)C=Cc2ccc(Cl)c(Cl)c2)CC1 | 990 nM
O=C(C=Cc1ccc(Cl)c(Cl)c1)NCCCCCN1CCCC(CCCNC(=O)/C=C/c2ccccc2)C1 (stereo unspecified) | 590 nM

SMILES | IC50
O=C(OCC1CCN(Cc2ccccc2)C1)c1ccc(Cl)cc1 (stereo unspecified) | 680 nM
O=C(NC1CCN(CC2(c3ccccc3F)CCCC2)CC1)c1ccn[nH]1 | 1000 nM
Cc1cc(N)c2cc(NC(=O)/C=C/c3ccc([N+](=O)[O-])cc3)ccc2n1 | 670 nM
Fc1ccccc1COc1ccc(Nc2ncnc3ccc(-c4nnc(C(F)(F)F)o4)cc23)cc1Cl | 730 nM
COc1ccc2ncc(F)c([C@@H](O)CN3CCC(NCc4ccc5c(c4)NCCS5)CC3)c2n1 | 500 nM
COc1ccc(OCCCN2CCCCC2)cc1S(=O)(=O)c1ccc(OCc2ccc(C(F)(F)F)cc2)cc1 | 1010 nM
CN1CCN(CCCN(Cc2ccc(-c3cccc(CNCc4ccc5c(c4)OCO5)c3)cc2)C(=O)NCCc2ccccc2)CC1 | 840 nM
Clc1cccnc1N1CCN(c2ncccc2Cl)CC1 | 150 nM
Nc1nccc2ccc(-c3ccc4nccn4c3)cc12 | 100 nM
O=C(/C=C/c1ccc(Cl)c(Cl)c1)NCCCCCCN1CCCN(C(=O)Nc2ccc(Cl)c(C(F)(F)F)c2)CC1 | 560 nM
COc1c(C2=CCN(CCCCNC(=O)c3ccc(-c4ccc(C#N)cc4)cc3)CC2)c(C)cc2c1C(C)(C)CCC2(C)C | 950 nM
c1cc(CNCC2CCCO2)cc(-c2cccc(-c3nc4ccccc4[nH]3)c2)c1 (stereo unspecified) | 860 nM
CCc1cc(Cc2cnc(N)nc2N)cc(CC)c1OC | 1130 nM
CC(C)(C)c1ccc(CN2CCC(CNC(=O)c3cc(-c4ccccc4C(F)(F)F)cs3)C2)cc1 (stereo unspecified) | 1240 nM
Cc1cc(NCCC(=O)NCc2cccc(F)c2)nc(NCCc2ccc(F)cc2)n1 | 1750 nM
CC[C@H](C)[C@H](NC(=O)[C@H](CC1CCCCC1)[C@H](CC)N(O)C=O)C(=O)Nc1ccccn1 | 180 nM
CC1CCCN(S(=O)(=O)c2cc(Br)cc3c2N(C(=O)C2CC2)CC3)C1 (stereo unspecified) | 720 nM
CC(Cc1ccc(NC(=O)[C@@H](C)NCCc2cccc(Cl)c2)cc1)NCCc1cccc(Cl)c1 (stereo partly specified) | 780 nM
CCC[C@@H]([C@@H](CC1CCC(C)CC1)C(=O)N[C@@H](CCCCNC(=O)c1ccccn1)C(=O)Nc1nccs1)N(O)C=O (stereo partly specified) | 50 nM
CN1CCC(N2CCN(Cc3ccc(-c4ccc(-c5nc6ccc(F)cc6[nH]5)s4)cc3)CC2)CC1 | 150 nM
COc1ccc(CN(C)CCCc2ccc(NC(=O)c3cccc4c(=O)c5ccccc5[nH]c34)cc2)cc1OC | 1370 nM
Cc1cc(O)c(-c2cc(C(=O)Nc3cccnc3)[nH]n2)cc1C | 770 nM
CCNc1cc(C(=O)N[C@@H](Cc2ccccc2)[C@H](O)CNC2CCC(C)(C)CC2)cc(N2CCCCS2(=O)=O)c1 | 650 nM
Cc1cc(CNCCCCCCCNCc2ccc(-c3ccccc3)cc2)ccc1O | 490 nM
